In patent US9988381B2, “Five-member-heterocycle fused pyridine compounds, method of producing the same, and use thereof” (SHANGHAI INSTITUTE OF MATERIA MEDICA, CHINESE ACADEMY OF …, priority 2013, dated 2018):
Where two headings read alike, the source gives them in different places.

Experiments:
[1] = molecular target: T1, c-Met kinase domain recombinant protein (Homo sapiens, UniProt P08581); test: biochemical; conditions: for inhibition at 1 µM: read-out: Average inhibition rate at 1 μM (%); for inhibition at 10 µM: read-out: Average inhibition rate at 10 μM (%); for inhibition at 0.1 µM: read-out: Average inhibition rate at 0.1 μM (%)
T1 construct: 50 μL diluted solution of c-Met kinase domain recombinant protein in reaction buffer was added to initiate the reaction
How it was run: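 IC50 came from a four-parameter fit of inhibition rates measured by anti-phosphotyrosine (PY99/HRP) ELISA at 490 nm. The reaction ran 1 hour at 37° C with 5 μM ATP, c-Met kinase domain protein and Poly(Glu,Tyr)4:1-coated wells, in HEPES pH 7.4 buffer containing MgCl2, MnCl2, Na3VO4 and DTT.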

[2] = molecular target: T1, c-Met kinase domain recombinant protein; test: biochemical; conditions: read-out: Inhibition rate at 10 μM (%)
How it was run: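 Recombinant c-Met kinase domain phosphorylated immobilised Poly(Glu,Tyr)4:1 for 1 h at 37 °C in 50 mM HEPES pH 7.4, 50 mM MgCl2, 0.5 mM MnCl2, 0.2 mM Na3VO4, 1 mM DTT with ATP. Product measured by anti-phosphotyrosine PY99 ELISA (HRP, 490 nm), giving percent inhibition; ATP-free wells served as control.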

EBC-1 cell = test: Test III: growth inhibition of non-small cell carcinoma EBC-1 cell (SRB); format: cell-based; conditions: Homo sapiens; for inhibition at 0.2 µM: read-out: Cell proliferation inhibition rate at 200 nM (%); for inhibition at 1 µM: read-out: Cell proliferation inhibition rate at 1 μM (%)
Experimental: Assays on the growth inhibition of the compounds against gastric tumor cell MKN45, non-small cell carcinoma EBC-1 cell (both are MET persistent activated cell lines due to MET gene amplification, and are Met dependent tumor cell lines, MKN45 cell was purchased from JCRB, Japan, EBC-1 cell was purchased from ATCC, USA) were detected using sulforhodamine B (SRB) staining. […] After incubation with compound for 72 hours, the incubation was terminated, adherent cells were retained and medium was discarded, 10% (w/v) trichloroacetic acid (100 μL pre well) was added, the cells were fixed at 4° C. for 1 hour, then rinsed with distilled water for 5 times, after dried at room temperature, SRB solution (4 mg/mL, dissolved in 1% glacial acetic acid) was added at 100 μL per well, incubated and stained at room temperature for 15 minutes, then rinsed with 1% glacial acetic acid for 5 times to remove any unbound SRB, dried at room temperature, then 10 mM Tris solution was added at 100 μL per well, the optical density (OD) value at 515 nm was measured using VERSMax microplate reader.
Experiments were conducted in duplicates. IC50 value was calculated by fitting the data for a four parameter fit using inhibition curve, the results are shown below in Table 2.

T1 sequence (P08581 1078-1345 limits assumed): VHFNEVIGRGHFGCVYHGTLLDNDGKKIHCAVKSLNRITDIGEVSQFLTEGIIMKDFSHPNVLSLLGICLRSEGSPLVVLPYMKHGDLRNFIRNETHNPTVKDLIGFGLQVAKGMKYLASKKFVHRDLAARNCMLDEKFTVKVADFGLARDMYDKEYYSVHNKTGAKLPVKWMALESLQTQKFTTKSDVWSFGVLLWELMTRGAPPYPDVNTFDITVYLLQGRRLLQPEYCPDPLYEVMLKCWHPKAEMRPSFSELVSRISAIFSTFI

| Structure (SMILES) | inhibition at 1 µM [1] | inhibition at 10 µM [1] | inhibition at 10 µM [2] | inhibition at 0.1 µM [1] | IC50 [1] | inhibition at 0.2 µM (EBC-1 cell; EBC-1, 72 h) | inhibition at 1 µM (EBC-1 cell; EBC-1, 72 h) | inhibition at 0.2 µM (EBC-1 cell; EBC-1, 200 nM, 72 hours) | inhibition at 1 µM (EBC-1 cell; EBC-1, 1 μM, 72 hours) |
| --- | --- | --- | --- | --- | --- | --- | --- | --- | --- |
| Cn1cc(-c2cnc3cnn(S(=O)(=O)c4cnc5ccc(-c6ccccc6C(F)(F)F)cn45)c3c2)cn1 [Example 84, 1-{[6-(2-trifluoromethylphenyl)-imidazo[1,2-a]pyridine]-3-sulfonyl}-6-[(1-methyl)-4-pyrazolyl]-1-H-pyrazolo[4,3-b]pyridine] | 41.2% | 73.5% | > 71.5% |  |  |  |  |  |  |
| Cn1cc(-c2cnc3cnn(S(=O)(=O)c4cnc5ccc(-c6cccc(F)c6)cn45)c3c2)cn1 [Example 86, 1-{[6-(3-fluorophenyl)-imidazo[1,2-a]pyridine]-3-sulfonyl}-6-[(1-methyl)-4-pyrazolyl]-1-H-pyrazolo[4,3-b]pyridine] | 66.6% | 77.8% | > 67.9% | 45% |  |  |  |  |  |
| Cn1cc(-c2cnc3cnn(S(=O)(=O)c4cnc5ccc(-c6cc(F)c(F)c(F)c6)cn45)c3c2)cn1 [Example 88, 1-{[6-(3,4,5-trifluorophenyl)-imidazo[1,2-a]pyridine]-3-sulfonyl}-6-[(1-methyl)-4-pyrazolyl]-1-H-pyrazolo[4,3-b]pyridine] | 59.4% | 64.5% | > 70.2% | 1.1% |  |  |  |  |  |
| Cn1cc(-c2cnc3cnn(S(=O)(=O)c4cnc5ccc(-c6ccc(C#N)cc6)cn45)c3c2)cn1 [Example 92, 1-{[6-(4-cyanophenyl)-imidazo[1,2-a]pyridine]-3-sulfonyl}-6-[(1-methyl)-4-pyrazolyl]-1-H-pyrazolo[4,3-b]pyridine] | 79.1% | 78.9% | > 71.9% | 82.8% |  |  |  |  |  |
| Cn1cc(-c2cnc3cnn(S(=O)(=O)c4cnc5ccc(-c6ccc(Cl)cc6)cn45)c3c2)cn1 [Example 94, 1-{[6-(4-chlorophenyl)-imidazo[1,2-a]pyridine]-3-sulfonyl}-6-[(1-methyl)-4-pyrazolyl]-1-H-pyrazolo[4,3-b]pyridine] | 55.7% | 83.9% | > 74.3% | 72.1% |  |  |  |  |  |
| COc1ccc(-c2ccc3ncc(S(=O)(=O)n4ncc5ncc(-c6cnn(C)c6)cc54)n3c2)cc1OC [Example 96, 1-{[6-(3,4-dimethoxyphenyl)-imidazo[1,2-a]pyridine]-3-sulfonyl}-6-[(1-methyl)-4-pyrazolyl]-1-H-pyrazolo[4,3-b]pyridine] | 61.5% | 68.3% | > 71.8% | 56.6% | 0.7 ± 0.1 nM |  |  |  |  |
| CC(C)c1c(-c2cnn(C)c2)cnc2cnn(S(=O)(=O)c3cnc4ccc(-c5cnn(C)c5)cn34)c12 [Example 103, 1-{(6-[(1-methyl)-4-pyrazolyl]-imidazo[1,2-a]pyridine)-3-sulfonyl}-6-[(1-methyl)-4-pyrazolyl]-7-isopropyl-1-H-pyrazolo[4,3-b]pyridine] | 101% |  |  | 98.5% | 3.2 ± 0.3 nM | 80.9% | 92.7% |  |  |
| O=S(=O)(c1cnc2ccc(-c3cn[nH]c3)cn12)n1ncc2ncc(-c3cn[nH]c3)cc21 [Example 104, 1-{[6-(4-pyrazolyl)-imidazo[1,2-a]pyridine]-3-sulfonyl}-6-(4-pyrazolyl)-1-H-pyrazolo[4,3-b]pyridine] | 100% |  |  | 99.8% | 2.1 ± 0.6 nM | 85.7% | 89.2% |  |  |
| Cn1cc(-c2cnc3cnn(S(=O)(=O)c4cnc5ccc(-c6cn[nH]c6)cn45)c3c2)cn1 [Example 105, 1-{[6-(4-pyrazolyl)-imidazo[1,2-a]pyridine]-3-sulfonyl}-6-[(1-methyl)-4-pyrazolyl]-1-H-pyrazolo[4,3-b]pyridine] | 100% |  |  | 97.8% | 2.6 ± 0.4 nM | 77.7% | 91.5% |  |  |
| Cn1cc(-c2ccc3ncc(S(=O)(=O)n4ncc5ncc(-c6cn[nH]c6)cc54)n3c2)cn1 [Example 106, 1-{(6-[(1-methyl)-4-pyrazolyl]-imidazo[1,2-a]pyridine)-3-sulfonyl}-6-(4-pyrazolyl)-1-H-pyrazolo[4,3-b]pyridine] | 101% |  |  | 104% | 1.9 ± 0.1 nM | 37% | 85.7% |  |  |
| Cn1cc(-c2cnc3[nH]cc(S(=O)(=O)n4ncc5cccnc54)c3c2)cn1 [Example 107, 1-{(5-[(1-methyl)-4-pyrazolyl])-1-H-pyrrolo [2,3-b]pyridine-3-sulfonyl}-1-H-pyrazolo[3,4-b]pyridine] | 88.2% |  |  | 29.1% |  |  |  | 18.9% | 18.1% |

Now from value to molecule, other results behind:

| inhibition at 1 µM [1] | inhibition at 10 µM [1] | inhibition at 10 µM [2] | inhibition at 0.1 µM [1] | IC50 [1] | Structure (SMILES) | inhibition at 0.2 µM (EBC-1 cell; EBC-1, 72 h) | inhibition at 1 µM (EBC-1 cell; EBC-1, 72 h) | inhibition at 0.2 µM (EBC-1 cell; EBC-1, 200 nM, 72 hours) | inhibition at 1 µM (EBC-1 cell; EBC-1, 1 μM, 72 hours) |
| --- | --- | --- | --- | --- | --- | --- | --- | --- | --- |
| 30.1% | 79.4% | > 71.2% |  |  | CN(C)c1ccc(-c2ccc3ncc(S(=O)(=O)n4ncc5ncc(-c6cnn(C)c6)cc54)n3c2)cc1 [Example 85, 1-{[6-(4-dimethylaminophenyl)-imidazo[1,2-a]pyridine]-3-sulfonyl}-6-[(1-methyl)-4-pyrazolyl]-1-H-pyrazolo[4,3-b]pyridine] |  |  |  |  |
| 72.7% | 72.5% | > 76.8% | 33.8% |  | Cn1cc(-c2cnc3cnn(S(=O)(=O)c4cnc5ccc(-c6ccc(F)cc6F)cn45)c3c2)cn1 [Example 87, 1-{[6-(2,4-difluorophenyl)-imidazo[1,2-a]pyridine]-3-sulfonyl}-6-[(1-methyl)-4-pyrazolyl]-1-H-pyrazolo[4,3-b]pyridine] |  |  |  |  |
| 79.9% | 83.4% | > 71.7% | 45.3% |  | COc1ccc(-c2ccc3ncc(S(=O)(=O)n4ncc5ncc(-c6cnn(C)c6)cc54)n3c2)cc1 [Example 89, 1-{[6-(4-methoxyphenyl)-imidazo[1,2-a]pyridine]-3-sulfonyl}-6-[(1-methyl)-4-pyrazolyl]-1-H-pyrazolo[4,3-b]pyridine] |  |  |  |  |
| 76.8% | 77.9% | > 64.5% | 76.1% |  | Cn1cc(-c2cnc3cnn(S(=O)(=O)c4cnc5ccc(-c6ccc7c(c6)OCCO7)cn45)c3c2)cn1 [Example 93, 1-{[6-[6-(1,4-benzodioxanyl)]-imidazo[1,2-a]pyridine]-3-sulfonyl}-6-[(1-methyl)-4-pyrazolyl]-1-H-pyrazolo[4,3-b]pyridine] |  |  |  |  |
| 66.8% | 74.3% | > 77.9% | 50.6% | 1.4 ± 0.1 nM | Cn1cc(-c2cnc3cnn(S(=O)(=O)c4cnc5ccc(-c6ccc7c(c6)OCO7)cn45)c3c2)cn1 [Example 98, 1-{[6-[5-(1,2-methylenedioxyphenyl)]-imidazo[1,2-a]pyridine]-3-sulfonyl}-6-[(1-methyl)-4-pyrazolyl]-1-H-pyrazolo[4,3-b]pyridine] |  |  |  |  |
| 100% |  | > 64.5% | 100% | 0.3 ± 0.1 nM | CNC(=O)c1ccc(-c2ccc3ncc(S(=O)(=O)n4ncc5ncc(-c6cnn(C)c6)cc54)n3c2)cc1F [Example 101, 1-{(6-(3-fluoro-4-methylaminocarbonylphenyl)-imidazo[1,2-a]pyridine)-3-sulfonyl}-6-[(1-methyl)-4-pyrazolyl]-1-H-pyrazolo[4,3-b]pyridine] |  |  |  |  |
